According to the METLIN SMRT retention time set (Domingo-Almenara et al. 2019):

test: gradient 5% acetonitrile 3 min, to 50% in 2 min, to 85% in 15 min, held 3 min, 100 µL/min; conditions: column: Zorbax Extend-C18 2.1 x 50 mm; eluents: water / acetonitrile, 0.1% formic acid
Method in brief: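 Over 3 months, pure standards in mixtures of ~100 molecules were run by HPLC coupled to a quadrupole time-of-flight mass spectrometer in positive and negative ionization mode. The column was a Zorbax Extend-C18 (2.1 × 50 mm, 1.8 μm) at 100 μL/min, eluted with water and acetonitrile each holding 0.1% formic acid, with 40 μL dead and 900 μL dwell volumes. Retention time was determined from adduct peaks chosen by software and checked manually.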

| RP-LC retention time [s] | SMILES |
| --- | --- |
| 623 | CN(CCNC(=O)C1CCCN(c2ncnc3c2nc2n3CCCCC2)C1)Cc1ccccc1 (centres undefined) |
| 687 | Cc1nn(C(C)C(=O)NCCCN(C)Cc2ccccc2)c(=O)c2c(C)n(-c3ccccc3)nc12 (centres undefined) |
| 885 | N#Cc1ccc(NC(=O)Cn2cc(-c3ccccc3)c3ncn(C4CC4)c(=O)c32)cc1 |
| 795 | Cc1nnc(N2CCCC(C(=O)NC(C)c3ccccc3)C2)c2nn(-c3ccc(Cl)cc3)c(C)c12 (centres undefined) |
| 598 | O=C(Nc1c(-c2ccccc2)nc2ccccn12)c1ccco1 |
| 676 | COCc1nn(C)c2c1CN(S(=O)(=O)c1cccc(C#N)c1)CC2 |
| 1040 | Cn1cc(S(=O)(=O)N2CCC(C(=O)NCc3ccccc3)CC2)cc1C(=O)N1CCCC1 |
| 847 | CN1C(=O)C(C)(C(=O)Nc2ccc(F)cc2)Oc2cccnc21 (centres undefined) |
| 758 | CCC(=O)N1CCc2cc(N3CC(C(=O)Nc4ccccc4OC)CC3=O)ccc21 (centres undefined) |
| 1040 | Cc1nn(C(C)C(=O)N2CCCCCC2)c(=O)c2c(-n3cccc3)n(-c3ccccc3)nc12 (centres undefined) |
| 763 | O=C(C1CC(=O)N(C2CCCCC2)C1)N1CCCCCC1 (centres undefined) |
| 765 | CCC(=O)N1CCc2c(C(=O)NC3CCCC3)cccc21 |
| 688 | CNC(=O)C1CCCN(c2nc3ncn(CC(=O)Nc4ccc5c(c4)CCC5)c(=O)c3s2)C1 (centres undefined) |
| 746 | CN(CC(=O)N1CC=C(c2ccccc2)CC1)S(=O)(=O)c1ccc2c(c1)CCCC(=O)N2 |
| 866 | CCOC(=O)c1cccc(NS(=O)(=O)c2cc(-c3cc(C)[nH]n3)ccc2C)c1 |
| 687 | CCN1CCCn2cc(S(=O)(=O)Nc3ccccc3F)cc2C1=O |
| 1170 | CCC(C)n1c(=O)c2ccccc2n(Cc2nc(-c3ccccc3Cl)no2)c1=O (centres undefined) |
| 738 | CCc1ccc(NC(=O)N2CCN(Cc3nc4ccccc4o3)CC2)cc1 |
| 650 | CCCN1C(=O)Cc2ccccc2C1C(=O)N1CCOCC1 (centres undefined) |
| 730 | O=c1ccc(-c2ccc3c(c2)OCO3)nn1CCc1nc(-c2ccccn2)no1 |
| 1080 | Cc1cc(C)c2c(N3CCCC3)nc(C(=O)N3CCN(c4ccccn4)CC3)nc2n1 |
| 726 | Cc1ccc(Cn2c(=O)n(CCNC(=O)C3CCCO3)c3ncccc32)cc1 (centres undefined) |
| 559 | O=C1OC(=O)C2C3CCC(O3)C12 (centres undefined) |

| RP-LC retention time [s] | SMILES |
| --- | --- |
| 769 | CC(C)N1CCn2cc(S(=O)(=O)NCc3ccccc3Cl)cc2C1=O |
| 949 | Cc1ccc(NC(=O)NC2CCN(c3ccc(C)c(C)c3)C2=O)c(C)c1 (centres undefined) |
| 1150 | Cc1cc(C)cc(-c2nnc(Cc3nc(-c4cccc(F)c4)no3)o2)c1 |
| 1270 | Cc1cc(C)c(S(=O)(=O)N2CCCC2c2nc(-c3ccc(F)cc3)no2)c(C)c1 (centres undefined) |
| 612 | CCOC(=O)C1=C(CN2CCN(c3ccccn3)CC2)NC(=O)NC1c1ccc(OC)cc1 (centres undefined) |
| 625 | Cc1noc(C)c1CC(=O)NC1CCc2nn(CC3CC3)c(=O)n2CC1 (centres undefined) |
| 1130 | CCN1C(=O)COc2ccc(-c3noc(/C=C/c4ccc(OC)cc4)n3)cc21 |
| 784 | O=CN1CC/C(=C/c2ccc3c(c2)OCO3)C1=O |
| 972 | CC(Oc1ccccc1)C(=O)N1CCN(C(=O)c2nnn3c2COC(c2ccc(Cl)cc2)C3)CC1 (centres undefined) |
| 577 | CC(C)Oc1ccc(CN2CCC3(CC2)CN(C)CC3c2nnc(C(C)C)o2)cc1 (centres undefined) |
| 688 | COCCCNCc1c(C(=O)O)c(C)n(Cc2ccccc2Cl)c1C |
| 838 | Cc1ccccc1Oc1nccn2c(=O)n(CC(=O)Nc3c(C)cccc3C)nc12 |
| 1060 | COC(=O)c1cccc(COC(=O)C2=CN(Cc3ccccc3)S(=O)(=O)N=C2C)c1 |
| 783 | CN(C)c1nccnc1OC1CCN(C(=O)c2ccc(Cl)cc2)C1 (centres undefined) |
| 681 | Fc1ccc(Cl)cc1-c1nnc(-c2ccc(-n3ccnc3)nc2)o1 |
| 702 | CCOC(=O)c1cnc2nc(C)ccc2c1Nc1ccc(OC)cc1OC |
| 826 | O=C(c1ccc(C(F)(F)F)cc1)N1CCC(n2c(-c3ccco3)nc3cccnc32)C1 (centres undefined) |
| 872 | CCc1nc2ccccc2c(=O)n1Cc1noc(-c2cccc(OC)c2OC)n1 |
| 782 | CN1C(=O)CO[C@@H](C(=O)Nc2cccc(F)c2)[C@@H]1c1ccccc1 |
| 795 | O=C(NCCc1noc(C2CC2)n1)c1ccc(Cl)s1 |
| 814 | Cc1ccc(N2C=C(C(=O)N3CCOCC3)S(=O)(=O)c3ccc(F)cc32)cc1 |
| 738 | CCS(=O)(=O)Nc1cc(-c2nnc(C)o2)sc1C |
| 1160 | O=C(Nc1ccc(Cl)cc1)C1CCN(c2nccnc2Sc2ccccc2)CC1 |

| RP-LC retention time [s] | SMILES |
| --- | --- |
| 706 | COc1ccc(-c2nc3cc(C)ccn3c2NC(=O)c2ccc(OC)cc2OC)cc1 |
| 1190 | COc1ccccc1-c1csc(-c2nnn(-c3ccc(Cl)cc3)c2N)n1 |
| 594 | Cn1nc(-c2nc(-c3ccccc3F)no2)c2c1CCN(C(=O)NC(C)(C)C)C2 |
| 677 | CCc1cc(=O)n(CC(=O)NCc2ccc3c(c2)OCO3)c(N2CCOCC2)n1 |
| 556 | Cc1nc(C(=O)N2CCCn3ccnc3C2C(C)C)co1 (centres undefined) |
| 669 | CNC(=O)C1CCCN(c2nc3ncn(CC(=O)Nc4cccc(SC)c4)c(=O)c3s2)C1 (centres undefined) |
| 1140 | O=c1c2ccccc2c(-c2nc(-c3ccncc3)no2)cn1-c1ccc(Cl)cc1 |
| 577 | Cc1nnc(CNC(=O)C(C)n2nnc3ccccc3c2=O)o1 (centres undefined) |
| 782 | CCCn1c(-c2cccc(C(=O)NCc3cccs3)c2)nc2cccnc21 |
| 732 | O=C(Cn1cnc2nc3c(cc2c1=O)CCCC3)Nc1ccccc1Br |
| 900 | O=C(NC1CCCCCC1)C1CCN(C(=O)c2ncn3c2COC(c2ccc(Cl)cc2)C3)CC1 (centres undefined) |
| 865 | CCOc1ccccc1CNC(=O)Cn1c(CC)nc2onc(C)c2c1=O |
| 929 | CCC(C)NC(=O)c1cc(-c2cccs2)nc2onc(C)c12 (centres undefined) |
| 766 | O=C(c1cnn2cccnc12)N1CCCC1c1ccc(Cl)cc1 (centres undefined) |
| 598 | CCc1nc2cccnc2n1CCN1CCN(C(=O)Nc2cc(C)ccc2C)CC1 |
| 792 | CCCCN1CC(c2nc3ccccc3n2CC(=O)N(c2ccccc2)C(C)C)CC1=O (centres undefined) |
| 1050 | COC(=O)c1c(-c2ccccc2)noc1NCc1ccccc1 |
| 1100 | Cc1ccccc1CN1C(=O)N(c2ccc(F)cc2)c2ncccc2S1(=O)=O |
| 755 | Cc1ccc(NC(=O)C2(C)Oc3cccnc3NC2=O)cc1F (centres undefined) |
| 1040 | CC1Oc2ccccc2N(Cc2nc(-c3ccccc3)no2)C1=O (centres undefined) |
| 1340 | CCOc1ccc(-c2csc(Cc3nc(-c4cccc(Cl)c4)no3)n2)cc1 |
| 839 | O=C([C@@H]1C[C@H](F)CN1S(=O)(=O)c1ccc(Br)s1)N1CCCCC1 |
| 785 | Cc1cc(C)cc(Nc2nc(C)cc(=O)n2CC(=O)Nc2ccc3c(c2)OCCO3)c1 |

| RP-LC retention time [s] | SMILES |
| --- | --- |
| 862 | Cc1ccc(NC(=O)C2CCCN(C(=O)C3Sc4ccccc4NC3=O)C2)cc1C (centres undefined) |
| 783 | CCOc1ccc(C(=O)N2C[C@@H]3C[C@H](NC(=O)c4cccs4)[C@H]2C3)cc1 |
| 1060 | CC(C)(C)c1noc(-c2ccc(-n3cnc(C(=O)NCc4ccccc4)c3)nc2)n1 |
| 933 | O=C(c1ccc2c(c1)OCO2)N1CCC(F)(F)C(COCC2CC2)C1 (centres undefined) |
| 830 | O=C1NCCCn2cc(S(=O)(=O)N3CCN(c4cccc(C(F)(F)F)c4)CC3)cc21 |
| 564 | O=C1NCCN2CC3(CCN(C(=O)Nc4ccccc4F)CC3)CC12 (centres undefined) |
| 799 | Fc1cccc(-c2noc(-c3ccc(N4CCN(c5ccccn5)CC4)nc3)n2)c1 |
| 722 | Cc1cccc(-c2nc(C)c3c(n2)N(Cc2cccnc2)C(=O)CC3)c1 |
| 925 | CCCCC(=O)Nc1nc(-c2ccc3c(c2)N(C)C(=O)CO3)c(C)s1 |
| 628 | Cc1ncn(CC(=O)Nc2ccccc2F)c(=O)c1C |
| 1000 | O=C(CSc1nc2ccccc2o1)OCc1cc(-c2ccc3c(c2)OCCO3)on1 |
| 659 | O=C(CCC(=O)N1CCN(c2ccc(=O)n(-c3ccc(Cl)cc3)n2)CC1)N1CCOCC1 |
| 608 | CC1(C)CS(=O)(=O)N(c2ccc(C(=O)N3CCN(c4ccccn4)CC3)cc2)C1=O |
| 1120 | CCCc1noc(-c2ccnc(-n3ncc(C(=O)Nc4ccc(F)cc4)c3C)c2)n1 |
| 838 | Cc1cccc(-c2noc(Cn3ccn(-c4ccccc4)c(=O)c3=O)n2)c1 |
| 1160 | CNC(=O)c1ccsc1NC(=O)c1cccc(C(F)(F)F)c1 |
| 774 | O=C(c1ccsc1)N1CCN(c2[nH]ncc2-c2ccccc2)CC1 |
| 877 | Cc1ccc(F)cc1NS(=O)(=O)c1cc2c(s1)CCN(C(=O)C1CCC1)C2 |
| 836 | Cc1cccc(N2C(=O)CN(CC(C)C)[C@H]3CS(=O)(=O)C[C@H]32)c1 |
| 830 | CCc1cc(=O)n(CC(=O)Nc2ccccc2Cl)c(N2CCOCC2)n1 |
